Measured values: patent publication US6509146B1, “Scalable long-term shelf preservation of sensitive biological solutions and suspensions” (Universal Preservation Technologies, Inc., priority 1996, dated 2003)

Tests used:
[1] = Urokinase activity after foam drying and storage; type: physicochemical; conditions: 40wt % sucrose foam
Experimental: (6) Freezer-dried samples of Urokinase were rehydrated with 2 ml of 40wt % sucrose. The solutions were then transferred to 20 ml sterilized glass vials for future preservation by drying. Before drying, the vials were covered with gray slotted rubber stoppers. The vials were dried inside a vacuum chamber. The vials were sitting on the surface of a stainless steel shelf inside the chamber. The shelf temperature was controlled by circulating ethylene glycol/water antifreeze at a controlled temperature inside the shelf. Before the vacuum was applied the shelf temperature was decreased to 5° C. Then the hydrostatic pressure inside the chamber was decreased to 0.5 Torr. Under such a conditions the suspension boiled 30 min. […] Visually, stable dry foams inside the vials under these experimental conditions were formed during 3 hours. After an additional 12 hours of drying at room temperature, the temperature was increased to 45° C. for an additional 24 hours. After that the chamber was filled with the dry N2 gas, the rubber stoppers were pushed down and the vials were sealed with aluminum crimped seal.
The samples were assayed right after drying and after 30 days of storage at 40° C. After drying the Urokinase, activity was 93% of the initial activity. This decrease was associated with the loss of Urokinase during transformation from initial vials to the vials at which the Urokinase was dried. […]

[2] = potency of Amphotericin after foam drying and storage; type: physicochemical
Experimental: (7) Freeze-dried samples of Amphotericine B were rehydrated with 5 ml 40wt % sucrose per vial. Then the solutions were transferred into 50 ml sterilized glass vials for future preservation by drying. Before drying, the vials were covered with gray butyl slotted rubber stoppers. The vials were dried inside a vacuum chamber. The vials were sitting on the surface of a stainless steel shelf inside the chamber. The shelf temperature was controlled by circulating ethylene glycol/water antifreeze at a controlled temperature inside the shelf. Before the vacuum was applied the shelf temperature was decreased to 5° C. The hydrostatic pressure inside the chamber was decreased to 0.5 Torr. Under such a conditions the suspension boiled 30 min. The temperature of the shelf was then slowly (during 30 min) increased to 25° C. Visually, stable dry foams inside the vials under these experimental conditions were formed after 3 hours. After an additional 12 hours of drying at room temperature, the chamber was filled with the dry N2 gas and the rubber stoppers in a portion of the vials were pushed down. The vials were removed from the chamber and subsequently sealed with aluminum crimped seal. The samples were assayed right after drying and after 30 day of storage at 27.50 and 40° C. The results are shown in Table 1, together with the results obtained in the next experiment.
Another set of freeze-dried samples of Amphotericin B were rehydrated with 5 ml 40wt % sucrose per vial. The solutions were then transferred into sterilized glass vials for future preservation by drying similar to that described above with additional drying at 45° C. for additional 24 hours. After that, the chamber was filled again with the dry N2 gas, the rubber stoppers were pushed down and the vials were sealed. The samples were assayed right after drying and after 30 day of storage at 27.50 and 40° C.

Compound: Urokinase
- Urokinase activity, % of the initial activity ([1]; after 30 days of storage at 40° C.): 90%
- Urokinase activity, % of the initial activity ([1]; right after drying (max 45° C.)): 93%

Compound: C[C@@H]1[C@H](O)[C@@H](C)/C=C/C=C/C=C/C=C/C=C/C=C/C=C/[C@H](O[C@@H]2O[C@H](C)[C@@H](O)[C@H](N)[C@@H]2O)C[C@@H]2O[C@](O)(C[C@@H](O)C[C@@H](O)[C@H](O)CC[C@@H](O)C[C@@H](O)CC(=O)O[C@H]1C)C[C@H](O)[C@H]2C(=O)O [Amphotericin, Amphotericin B]
- Potency of Amphotericin (%) ([2]; Freeze-dried control): 126%
- Potency of Amphotericin (%) After 30 days of storage at 27.5° C. ([2]; Td = 25° C.): 114%
- Potency of Amphotericin (%) After drying ([2]; Td = 25° C. (maximum temperature during drying)): 108%
- Potency of Amphotericin (%) After 30 days of storage at 27.5° C. ([2]; Td = 45° C.): 102%
- Potency of Amphotericin (%) After 30 days of storage at 40° C. ([2]; Td = 45° C.): 104%
- Potency of Amphotericin (%) After drying ([2]; Td = 45° C.): 103%
